The results in this text go back to patent US7045116B2, “Treatment of osteomyelitis with radiopharmaceuticals” (priority 2001, dated 2006).

Series [1] is described as follows: Biodistribution of radiopharmaceuticals in rats with tourniquet on left hind leg. The following applies: for Femoral Percentage Dose per Gram / Tibial Percentage Dose per Gram: i.v. tail vein; for Tibial Percentage Dose per Gram: sacrifice after two hours. The format is in vivo, Sprague-Dawley rats. The source says:
Rat biodistribution studies were done on Male Sprague-Dawley rats weighing 180–200 g that had been acclimated for approximately one week prior to this study. Four test complexes were used, Ho-DOTMP (Example 3), Ho-EDTMP (Example 4), Sm-DOTMP (Example 5) and Sm-EDTMP (Example 6). The rats were placed in a restraining cage that afforded accessibility to the left hind leg and tail. Prior to injection a tie wrap tourniquet was placed on the left hind femur above the knee to restrict blood flow. The amount of pressure induced by the tourniquet was standardized by using a tie wrap gun and was sufficient to stop arterial flow. Three rats per complex each received a 100.0 μL intravenous injection in a lateral tail vein. The tourniquets were allowed to remain in place for 5, 10 or 20 minutes post injection and were then removed. The rats were then watched for two hours, the usual biodistribution period used to allow excretion of all radioactive complexes not bound to tissue. The rats were then sacrificed for removal of tibias. The number of radioactive counts were then determined and compared to the average of number of counts of three 100.0 μL standards of the same material that was injected. Several additional tissues (femur, injection site, liver, kidney, spleen, muscle, and blood) were collected and counted for rats that had the 20 minutes restricted blood flow to check for expected renal excretion of radioactive complexes.
This reflects the concentration of the radioactive complex in the bone. Table 1 combines the data on the radioactivity found in the tibias of the rats from Examples 3 to 6 for each of the three times of tourniquet placement. Table 2 combines the data on the radioactivity found in the femurs of the rats from Examples 3 to 6 for the tourniquets applied for 20 minutes. The degree of “protection” of the bone by the tourniquet can be seen by comparison of the radioactivity in the bones on the left side (“protected” by the tourniquet for the time specified) as compared to the corresponding bones on the right side (fully exposed to the systemic, intravenous dose).

The next series deals with Staphylococcus aureus. The series is described as follows: Treatment of osteomyelitis in rats with 166Ho-DOTMP (serial radiographs of the leg). The following applies: rats with S. aureus osteomyelitis of left leg; intramuscular injection of 30 Gray (9 milliCurie); tourniquet above knee released after 10 minutes; in two weeks. The format is in vivo, Sprague Dawley rats. As to the method: This example describes the successful treatment of osteomyelitis in rats using ^166Ho-DOTMP. Four 150 g male Sprague Dawley rats were anesthetized and prepared for surgery by shaving the left leg. The skin over the left tibia and fibula was opened, a hole was drilled into the bone marrow, and an 18-gauge needle was inserted into the bone marrow. Through the needle, a piece of 0 surgical suture and approximately 0.1 ml of Staphylococcus aureus culture in Trypticase soy broth were introduced into the bone marrow. The needle was removed and the bone defect sealed with cyanoacrylate glue. The skin was closed with 0 surgical suture. The rats were followed with serial radiographs of the left leg. Lytic lesions diagnostic of osteomyelitis developed in the fibula over the next three weeks. The entire bone appeared radiolucent. Two rats were followed without treatment. One week later, both of the rats died. […] Culture of the fluid grew Gram positive cocci consistent with the original Staphylococcus aureus infection. Two rats were treated with ^166Ho-DOTMP. A tourniquet was placed on the left leg above the knee. An intramuscular injection of 30 Gray (9 milliCurie) of ^166Ho-DOTMP was given after application of the tourniquet. The tourniquet was released after 10 minutes. The rats were followed with continued serial radiographs of the leg.

Setting [2] is: Left Femur (partially protected by tourniquet), tourniquet 20 minute.
[3] abbreviates: Left Tibia (protected by tourniquet), tourniquet 5 minute.
Setting [4] is: Left Tibia (protected by tourniquet), tourniquet 10 minute.
Where [5] appears, read: Left Tibia (protected by tourniquet), tourniquet 20 minute.
The mark [6] stands for this setting: Right Femur (unprotected), tourniquet 20 minute.
The mark [7] stands for this setting: Right Tibia (unprotected), tourniquet 5 minute.
Setting [8] is: Right Tibia (unprotected), tourniquet 10 minute.
Setting [9] is: Right Tibia (unprotected), tourniquet 20 minute.

`O=P(O)(O)CN(CCN(CP(=O)(O)O)CP(=O)(O)O)CP(=O)(O)O.[Ho+3]` [Ho-EDTMP]: the “Dose per Gram in Left Leg as a Percentage of Dose per Gram in Right Leg” value is reported as 54% in series [1] (Femur, tourniquet 20 minute); 84% in series [1] (Tibia, tourniquet 5 minute); 50% in series [1] (Tibia, tourniquet 10 minute); 23% in series [1] (Tibia, tourniquet 20 minute). The “Femoral Percentage Dose per Gram” value in series [1] (setting [2]) is given as 2.33 Percentage Dose per Gram; in series [1] (setting [6]) it was 4.31 Percentage Dose per Gram. Further, the “Tibial Percentage Dose per Gram” value in series [1] (setting [3]) came to 1.35 Percentage Dose per Gram; in series [1] (setting [4]), 3.49 Percentage Dose per Gram; in series [1] (setting [5]), 1.25 Percentage Dose per Gram; in series [1] (setting [7]), 1.60 Percentage Dose per Gram; in series [1] (setting [8]) it was 6.95 Percentage Dose per Gram; in series [1] (setting [9]), 5.33 Percentage Dose per Gram.
In the case of `O=P(O)(O)CN(CCN(CP(=O)(O)O)CP(=O)(O)O)CP(=O)(O)O.[Sm+3]` [Sm-EDTMP], the “Dose per Gram in Left Leg as a Percentage of Dose per Gram in Right Leg” value in series [1] (Femur, tourniquet 20 minute) is on record as 38%; in series [1] (Tibia, tourniquet 5 minute) it was 79%; in series [1] (Tibia, tourniquet 10 minute), 41%; in series [1] (Tibia, tourniquet 20 minute), 36%. The “Femoral Percentage Dose per Gram” value is 2.05 Percentage Dose per Gram in series [1] (setting [2]) and 5.44 Percentage Dose per Gram in series [1] (setting [6]). The “Tibial Percentage Dose per Gram” value came to 5.33 Percentage Dose per Gram in series [1] (setting [3]); 2.56 Percentage Dose per Gram in series [1] (setting [4]); 2.04 Percentage Dose per Gram in series [1] (setting [5]); 6.73 Percentage Dose per Gram in series [1] (setting [7]); 6.17 Percentage Dose per Gram in series [1] (setting [8]); 5.73 Percentage Dose per Gram in series [1] (setting [9]).
With `O=P(O)(O)CN1CCN(CP(=O)(O)O)CCN(CP(=O)(O)O)CCN(CP(=O)(O)O)CC1.[Sm+3]` [Sm-DOTMP], the “Dose per Gram in Left Leg as a Percentage of Dose per Gram in Right Leg” value in series [1] (Femur, tourniquet 20 minute) was 22%; in series [1] (Tibia, tourniquet 5 minute), 61%; in series [1] (Tibia, tourniquet 10 minute) it was 50%; in series [1] (Tibia, tourniquet 20 minute), 25%. The “Femoral Percentage Dose per Gram” value in series [1] (setting [2]) came to 1.40 Percentage Dose per Gram; in series [1] (setting [6]) it was 6.46 Percentage Dose per Gram. Also, the “Tibial Percentage Dose per Gram” value came to 4.82 Percentage Dose per Gram in series [1] (setting [3]); 3.38 Percentage Dose per Gram in series [1] (setting [4]); 2.06 Percentage Dose per Gram in series [1] (setting [5]); 7.91 Percentage Dose per Gram in series [1] (setting [7]); 6.79 Percentage Dose per Gram in series [1] (setting [8]); 8.34 Percentage Dose per Gram in series [1] (setting [9]).
Consider `O=P([O-])(O)CN1CCN(CP(=O)(O)O)CCN(CP(=O)([O-])O)CCN(CP(=O)(O)O)CC1.[166Ho]` [^166Ho-DOTMP], for which, in the series on Staphylococcus aureus, the “Radiographic appearance of tibia and fibula” value was “return to normal appearance of the tibia and fibula”.
Take `O=P(O)(O)CN1CCN(CP(=O)(O)O)CCN(CP(=O)(O)O)CCN(CP(=O)(O)O)CC1.[Ho+3]` [Ho-DOTMP]: the “Dose per Gram in Left Leg as a Percentage of Dose per Gram in Right Leg” value in series [1] (Femur, tourniquet 20 minute) turned out to be 24%; in series [1] (Tibia, tourniquet 5 minute), 45%; in series [1] (Tibia, tourniquet 10 minute), 45%; in series [1] (Tibia, tourniquet 20 minute) it was 21%. Moreover, the “Femoral Percentage Dose per Gram” value in series [1] (setting [2]) came out at 1.33 Percentage Dose per Gram; in series [1] (setting [6]), 5.59 Percentage Dose per Gram. For the same compound, the “Tibial Percentage Dose per Gram” value in series [1] (setting [3]) is 3.19 Percentage Dose per Gram; in series [1] (setting [4]), 3.41 Percentage Dose per Gram; in series [1] (setting [5]), 1.35 Percentage Dose per Gram; in series [1] (setting [7]), 7.06 Percentage Dose per Gram; in series [1] (setting [8]), 7.52 Percentage Dose per Gram; in series [1] (setting [9]), 6.39 Percentage Dose per Gram.
